Experimental data from PubChem BioAssay AID248 (DTP/NCI, 2004).
“And” between values parts separate entries of the source, which are not always exact repeats. Equal entries are not always repeated. Inconclusive results and toxic doses are left out. Rule as the data show it: active = T/C of 150% or more; inactive = T/C below 125%.

System: L1210 leukemia ip in BDF1 mice, survival T/C
Assay: NCI In Vivo Anticancer Drug Screen. Data for tumor model L1210 Leukemia (intraperitoneal) in B6D2F1 (BDF1) mice
Settings: endpoint: mean survival time, higher = longer survival
Summary of the method: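 Antitumor effect is assessed in tumor-bearing animals. Survival in the compound arm is compared with a vehicle-dosed control arm and expressed as their quotient.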

[1] = dose: 100.0 mg/kg/injection, schedule: Q01DX001 (ip), vehicle: carboxymethylcellulose (CMC)
[2] = dose: 200.0 mg/kg/injection, schedule: Q01DX001 (ip), vehicle: carboxymethylcellulose (CMC)
[3] = dose: 400.0 mg/kg/injection, schedule: Q01DX001 (ip), vehicle: carboxymethylcellulose (CMC)
[4] = dose: 50.0 mg/kg/injection, schedule: Q01DX009 (ip), vehicle: saline with Tween-80
[5] = dose: 100.0 mg/kg/injection, schedule: Q01DX009 (ip), vehicle: saline with Tween-80
[6] = dose: 100.0 mg/kg/injection, schedule: Q04DX003 (ip), vehicle: saline
[7] = dose: 50.0 mg/kg/injection, schedule: Q01DX009 (ip), vehicle: Klucel (hydroxypropylcellulose) (HPC)
[8] = dose: 100.0 mg/kg/injection, schedule: Q01DX009 (ip), vehicle: Klucel (hydroxypropylcellulose) (HPC)
[9] = dose: 200.0 mg/kg/injection, schedule: Q01DX009 (ip), vehicle: Klucel (hydroxypropylcellulose) (HPC)
[10] = dose: 100.0 mg/kg/injection, schedule: Q04DX002 (ip), vehicle: Klucel (hydroxypropylcellulose) (HPC)
[11] = dose: 200.0 mg/kg/injection, schedule: Q04DX002 (ip), vehicle: Klucel (hydroxypropylcellulose) (HPC)
[12] = dose: 400.0 mg/kg/injection, schedule: Q04DX002 (ip), vehicle: Klucel (hydroxypropylcellulose) (HPC)
[13] = dose: 100.0 mg/kg/injection, schedule: Q04DX003 (ip), vehicle: Klucel (hydroxypropylcellulose) (HPC)
[14] = dose: 100.0 mg/kg/injection, schedule: Q04DX002 (ip), vehicle: saline with Tween-80
[15] = dose: 200.0 mg/kg/injection, schedule: Q01DX009 (ip), vehicle: saline with Tween-80
[16] = dose: 200.0 mg/kg/injection, schedule: Q04DX002 (ip), vehicle: saline with Tween-80
[17] = dose: 400.0 mg/kg/injection, schedule: Q04DX002 (ip), vehicle: saline with Tween-80
[18] = dose: 100.0 mg/kg/injection, schedule: Q04DX003 (ip), vehicle: saline with Tween-80
[19] = dose: 200.0 mg/kg/injection, schedule: Q04DX003 (ip), vehicle: saline with Tween-80
[20] = dose: 400.0 mg/kg/injection, schedule: Q04DX003 (ip), vehicle: saline with Tween-80
[21] = dose: 100.0 mg/kg/injection, schedule: Q01DX009 (ip), vehicle: saline
[22] = dose: 200.0 mg/kg/injection, schedule: Q01DX009 (ip), vehicle: saline
[23] = dose: 200.0 mg/kg/injection, schedule: Q04DX003 (ip), vehicle: saline
[24] = dose: 400.0 mg/kg/injection, schedule: Q01DX009 (ip), vehicle: saline
[25] = dose: 400.0 mg/kg/injection, schedule: Q04DX003 (ip), vehicle: saline

Measured: T/C

CCC12CC(Br)C(C1)OC2=O (stereo not drawn)
inactive: dose: 100.0 mg/kg/injection, schedule: Q04DX003 (ip), vehicle: other 100 % of control | dose: 200.0 mg/kg/injection, schedule: Q04DX003 (ip), vehicle: other 95 % of control | dose: 400.0 mg/kg/injection, schedule: Q04DX003 (ip), vehicle: other 94 % of control

Cc1ccc(N2C(=O)C=CC2=O)cc1
inactive: dose: 100.0 mg/kg/injection, schedule: Q04DX003 (ip), vehicle: acetone 97 % of control | dose: 200.0 mg/kg/injection, schedule: Q04DX003 (ip), vehicle: acetone 92 % of control | dose: 400.0 mg/kg/injection, schedule: Q04DX003 (ip), vehicle: acetone 86 % of control

CCCCCOC(=O)c1ccc(C)s1
inactive: [1] 90 % of control | [2] 101 % of control | [3] 98 % of control

Clc1ccc2c(c1)C(Br)c1cc(Cl)cc(Cl)c1-2 (stereo not drawn)
inactive: dose: 25.0 mg/kg/injection, schedule: Q01DX009 (ip), vehicle: saline with Tween-80 102 % of control | dose: 25.0 mg/kg/injection, schedule: Q04DX003 (ip), vehicle: saline 102 % of control | [4] 94 % of control | dose: 50.0 mg/kg/injection, schedule: Q04DX003 (ip), vehicle: saline 102 % of control | dose: 100.0 mg/kg/injection, schedule: Q01DX001 (ip), vehicle: acetone 94 % of control | [5] 93 % of control | [6] 91 % of control

NC(=O)CC(NC(=O)OCc1ccccc1)C(=O)O (stereo not drawn)
inactive: [7] 95 % of control | [8] 95 % of control | [9] 109 % of control

NC(=S)Nc1cccc(O)c1
inactive: dose: 100.0 mg/kg/injection, schedule: Q01DX009 (ip), vehicle: gum acacia 96 % of control | dose: 100.0 mg/kg/injection, schedule: Q04DX003 (ip), vehicle: gum acacia 92 % of control | dose: 200.0 mg/kg/injection, schedule: Q01DX009 (ip), vehicle: gum acacia 87 % of control | dose: 200.0 mg/kg/injection, schedule: Q04DX003 (ip), vehicle: gum acacia 92 % of control | dose: 400.0 mg/kg/injection, schedule: Q01DX009 (ip), vehicle: gum acacia 87 % of control | dose: 400.0 mg/kg/injection, schedule: Q04DX003 (ip), vehicle: gum acacia 92 % of control

CCOC(=O)CNc1cccc(C(F)(F)F)c1
inactive: dose: 100.0 mg/kg/injection, schedule: Q01DX009 (ip), vehicle: carboxymethylcellulose (CMC) 98 % of control | [10] 100 % of control and 105 % of control | dose: 200.0 mg/kg/injection, schedule: Q01DX009 (ip), vehicle: carboxymethylcellulose (CMC) 93 % of control | [11] 109 % of control and 114 % of control | [12] 98 % of control

C/C=C/Sc1ccccc1C(=O)O
inactive: dose: 50.0 mg/kg/injection, schedule: Q01DX001 (ip), vehicle: carboxymethylcellulose (CMC) 104 % of control | [1] 100 % of control | [2] 104 % of control

CN(C)c1ccc2c(c1)C(=P(c1ccccc1)(c1ccccc1)c1ccccc1)c1ccccc1-2
inactive: dose: 63.0 mg/kg/injection, schedule: Q01DX015 (ip), vehicle: carboxymethylcellulose (CMC) 103 % of control | [1] 97 % of control | dose: 125.0 mg/kg/injection, schedule: Q01DX015 (ip), vehicle: carboxymethylcellulose (CMC) 94 % of control | [2] 101 % of control | dose: 250.0 mg/kg/injection, schedule: Q01DX015 (ip), vehicle: carboxymethylcellulose (CMC) 100 % of control | [3] 90 % of control | dose: 500.0 mg/kg/injection, schedule: Q01DX015 (ip), vehicle: carboxymethylcellulose (CMC) 89 % of control

CNc1ccccc1C(N)=O
inactive: [8] 106 % of control | [13] 105 % of control | [9] 98 % of control | dose: 200.0 mg/kg/injection, schedule: Q04DX003 (ip), vehicle: Klucel (hydroxypropylcellulose) (HPC) 102 % of control | dose: 400.0 mg/kg/injection, schedule: Q01DX009 (ip), vehicle: Klucel (hydroxypropylcellulose) (HPC) 101 % of control | dose: 400.0 mg/kg/injection, schedule: Q04DX003 (ip), vehicle: Klucel (hydroxypropylcellulose) (HPC) 96 % of control

CCOC(=O)c1ccc(NC(=O)Oc2ccc(-c3ccccc3)cc2)cc1
inactive: dose: 100.0 mg/kg/injection, schedule: Q01DX001 (ip), vehicle: saline with Tween-80 96 % of control | [5] 97 % of control and 102 % of control | [14] 94 % of control and 100 % of control | dose: 200.0 mg/kg/injection, schedule: Q01DX001 (ip), vehicle: saline with Tween-80 88 % of control | [15] 92 % of control and 97 % of control | [16] 101 % of control and 88 % of control | dose: 400.0 mg/kg/injection, schedule: Q01DX001 (ip), vehicle: saline with Tween-80 96 % of control | dose: 400.0 mg/kg/injection, schedule: Q01DX009 (ip), vehicle: saline with Tween-80 93 % of control and 100 % of control | [17] 97 % of control

CC(C)=Cc1ccccc1
inactive: [5] 98 % of control | [18] 95 % of control | [15] 93 % of control | [19] 87 % of control | [20] 94 % of control

CN(C)CCN(Cc1ccccc1)c1ccccc1
inactive: dose: 25.0 mg/kg/injection, schedule: Q01DX009 (ip), vehicle: Klucel (hydroxypropylcellulose) (HPC) 98 % of control | dose: 25.0 mg/kg/injection, schedule: Q04DX003 (ip), vehicle: Klucel (hydroxypropylcellulose) (HPC) 95 % of control | [7] 102 % of control | dose: 50.0 mg/kg/injection, schedule: Q04DX003 (ip), vehicle: Klucel (hydroxypropylcellulose) (HPC) 103 % of control | [8] 106 % of control | [13] 103 % of control

CC(O)C(O)C(=O)OCc1ccccc1 (stereo not drawn)
inactive: [21] 117 % of control | [6] 101 % of control | [22] 102 % of control | [23] 103 % of control | [24] 110 % of control | [25] 98 % of control

COC(OC)OC
inactive: [21] 104 % of control | [6] 100 % of control | [22] 101 % of control | [23] 105 % of control | [24] 100 % of control | [25] 105 % of control

CCCCNC(=NC)c1ccc(NC(=O)c2ccc(C(=O)Nc3ccc(C(=NC)NCCCC)cc3)cc2)cc1
inactive: dose: 4.4 mg/kg/injection, schedule: Q01DX Z (ip), vehicle: saline 112 % of control | dose: 6.6 mg/kg/injection, schedule: Q01DX Z (ip), vehicle: saline 120 % of control

CNCCN(C)CCNC
inactive: dose: 50.0 mg/kg/injection, schedule: Q01DX009 (ip), vehicle: saline 104 % of control | [21] 101 % of control | [6] 103 % of control | [23] 96 % of control

O=C(OC1CC2CC=CC21)c1ccc([N+](=O)[O-])cc1 (stereo not drawn)
inactive: [18] 96 % of control | [19] 98 % of control | [20] 94 % of control

CC(=O)Oc1c2ccccc2c(OC(C)=O)c2cc(/C=C/C(=O)O)ccc12
inactive: [18] 95 % of control | [19] 90 % of control | [20] 88 % of control

N#CC(Nc1ncccn1)c1ccccc1 (stereo not drawn)
inactive: [4] 104 % of control | [5] 93 % of control | [15] 104 % of control

C=CCNc1nc(C)ncc1C(=O)OCC
inactive: dose: 75.0 mg/kg/injection, schedule: Q04DX003 (ip), vehicle: saline with Tween-80 94 % of control | dose: 150.0 mg/kg/injection, schedule: Q04DX003 (ip), vehicle: saline with Tween-80 92 % of control | dose: 300.0 mg/kg/injection, schedule: Q04DX003 (ip), vehicle: saline with Tween-80 92 % of control

[CH3][Sn]([c]1ccccc1)([c]1ccccc1)[c]1ccccc1
inactive: [14] 91 % of control | [16] 95 % of control | [17] 103 % of control

CCc1c(N)nc(N)nc1Nc1ccc(Cl)c(Cl)c1
inactive: dose: 100.0 mg/kg/injection, schedule: Q01DX Z (ip), vehicle: methylcellulose (MC) 96 % of control

CC(=O)/C=C1\C(=O)Nc2ccccc21
inactive: [10] 104 % of control | [11] 89 % of control | [12] 91 % of control
